Data from ChEMBL document CHEMBL1201862, “PubChem BioAssay data set” (2004).
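Step 1: Grow cells in 96-well plates. Step 2: Expose to compound for 48 hours at 5 concentrations. Step 3: Interpolate endpoints linearly; if unreached, use highest concentration. Here, GI50 denotes the concentration required for 50% inhibition of growth.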 The source made the active and inactive calls. Rule as the data show it: active = GI50 up to about 1.1 µM and inactive = higher.

Key:
Assay in all cases: inhibition of tumour cell growth, NCI panel, 48 h
SF-539 = tested on: SF-539
SK-MEL-2 = tested on: SK-MEL-2
SW-620 = tested on: SW-620
SK-MEL-28 = tested on: SK-MEL-28
A498 = tested on: A498
M19-MEL = tested on: M19-MEL
Malme-3M = tested on: Malme-3M
A549 = tested on: A549
RXF 393 = tested on: RXF 393
IGROV-1 = tested on: IGROV-1
DMS-273 = tested on: DMS-273
DLD-1 = tested on: DLD-1
SK-OV-3 = tested on: SK-OV-3
OVCAR-5 = tested on: OVCAR-5
SNB-19 = tested on: SNB-19
KM12 = tested on: KM12
CAKI-1 = tested on: CAKI-1
HCC 2998 = tested on: HCC 2998
HCT-116 = tested on: HCT-116
UO-31 = tested on: UO-31
TK-10 = tested on: TK-10
NCI-H226 = tested on: NCI-H226
HL-60 = tested on: HL-60
HOP-18 = tested on: HOP-18
RPMI-8226 = tested on: RPMI-8226
SF-268 = tested on: SF-268
CCRF-CEM = tested on: CCRF-CEM
786-0 = tested on: 786-0
M14 = tested on: M14
SNB-75 = tested on: SNB-75
U-251 = tested on: U-251
HOP-62 = tested on: HOP-62
HT-29 = tested on: HT-29
COLO 205 = tested on: COLO 205
OVCAR-3 = tested on: OVCAR-3
OVCAR-8 = tested on: OVCAR-8
K562 = tested on: K562
NCI-H522 = tested on: NCI-H522
UACC-257 = tested on: UACC-257
SF-295 = tested on: SF-295
LXFL 529 = tested on: LXFL 529
EKVX = tested on: EKVX
UACC-62 = tested on: UACC-62
OVCAR-4 = tested on: OVCAR-4
NCI-H23 = tested on: NCI-H23
NCI-H460 = tested on: NCI-H460
SNB-78 = tested on: SNB-78
SK-MEL-5 = tested on: SK-MEL-5
KM-20L2 = tested on: KM-20L2
LOX IMVI = tested on: LOX IMVI
DMS-114 = tested on: DMS-114
MOLT-4 = tested on: MOLT-4
ACHN = tested on: ACHN
HCT-15 = tested on: HCT-15
SR = tested on: SR
SN12C = tested on: SN12C
HOP-92 = tested on: HOP-92

CCOC(=O)/C([O-])=C(\C(=O)OCC)[n+]1c(C)n(C)c2ccccc21
GI50 (SF-539): > 100 µM (inactive)
GI50 (SK-MEL-2): > 100 µM (inactive)
GI50 (SW-620): > 100 µM (inactive)
GI50 (SK-MEL-28): > 100 µM (inactive)
GI50 (A498): > 100 µM (inactive)
GI50 (M19-MEL): > 100 µM (inactive)
GI50 (Malme-3M): > 100 µM (inactive)
GI50 (A549): > 100 µM (inactive)
GI50 (RXF 393): > 100 µM (inactive)
GI50 (IGROV-1): > 100 µM (inactive)
GI50 (DMS-273): > 100 µM (inactive)
GI50 (DLD-1): > 100 µM (inactive)
GI50 (SK-OV-3): > 100 µM (inactive)
GI50 (OVCAR-5): > 100 µM (inactive)
GI50 (SNB-19): > 100 µM (inactive)
GI50 (KM12): > 100 µM (inactive)
GI50 (CAKI-1): > 100 µM (inactive)
GI50 (HCC 2998): > 100 µM (inactive)
GI50 (HCT-116): > 100 µM (inactive)
GI50 (UO-31): > 100 µM (inactive)
GI50 (TK-10): > 100 µM (inactive)
GI50 (NCI-H226): > 100 µM (inactive)
GI50 (HL-60): > 100 µM (inactive)
GI50 (HOP-18): > 100 µM (inactive)
GI50 (RPMI-8226): > 100 µM (inactive)
GI50 (SF-268): > 100 µM (inactive)
GI50 (CCRF-CEM): > 100 µM (inactive)
GI50 (786-0): > 100 µM (inactive)
GI50 (M14): > 100 µM (inactive)
GI50 (SNB-75): > 100 µM (inactive)
GI50 (U-251): > 100 µM (inactive)
GI50 (HOP-62): > 100 µM (inactive)
GI50 (HT-29): > 100 µM (inactive)
GI50 (COLO 205): > 100 µM (inactive)
GI50 (OVCAR-3): > 100 µM (inactive)
GI50 (OVCAR-8): > 100 µM (inactive)
GI50 (K562): > 100 µM (inactive)
GI50 (NCI-H522): > 100 µM (inactive)
GI50 (UACC-257): > 100 µM (inactive)
GI50 (SF-295): > 100 µM (inactive)
GI50 (LXFL 529): > 100 µM (inactive)
GI50 (EKVX): > 100 µM (inactive)
GI50 (UACC-62): > 100 µM (inactive)
GI50 (OVCAR-4): > 100 µM (inactive)
GI50 (NCI-H23): > 100 µM (inactive)
GI50 (NCI-H460): > 100 µM (inactive)
GI50 (SNB-78): > 100 µM (inactive)
GI50 (SK-MEL-5): > 100 µM (inactive)
GI50 (KM-20L2): > 100 µM (inactive)
GI50 (LOX IMVI): > 100 µM (inactive)
GI50 (DMS-114): > 100 µM (inactive)
GI50 (MOLT-4): > 100 µM (inactive)

CCSC(=O)C1(C)OC2CCCCC2C1=O (configuration not stated)
GI50 (SF-539): > 100 µM (inactive)
GI50 (SK-MEL-2): > 100 µM (inactive)
GI50 (SW-620): > 100 µM (inactive)
GI50 (SK-MEL-28): > 100 µM (inactive)
GI50 (A498): > 100 µM (inactive)
GI50 (M19-MEL): > 100 µM (inactive)
GI50 (ACHN): > 100 µM (inactive)
GI50 (Malme-3M): > 100 µM (inactive)
GI50 (A549): > 100 µM (inactive)
GI50 (RXF 393): > 100 µM (inactive)
GI50 (IGROV-1): > 100 µM (inactive)
GI50 (HCT-15): > 100 µM
GI50 (DMS-273): > 100 µM (inactive)
GI50 (DLD-1): > 100 µM (inactive)
GI50 (SK-OV-3): > 100 µM (inactive)
GI50 (SNB-19): > 100 µM (inactive)
GI50 (KM12): > 100 µM (inactive)
GI50 (SR): > 100 µM (inactive)
GI50 (CAKI-1): > 100 µM (inactive)
GI50 (HCC 2998): > 100 µM (inactive)
GI50 (HCT-116): > 100 µM (inactive)
GI50 (UO-31): > 100 µM (inactive)
GI50 (TK-10): > 100 µM (inactive)
GI50 (NCI-H226): > 100 µM (inactive)
GI50 (HL-60): > 100 µM (inactive)
GI50 (HOP-18): > 100 µM (inactive)
GI50 (RPMI-8226): > 100 µM (inactive)
GI50 (SN12C): > 100 µM (inactive)
GI50 (SF-268): > 100 µM (inactive)
GI50 (CCRF-CEM): > 100 µM (inactive)
GI50 (786-0): > 100 µM (inactive)
GI50 (M14): > 100 µM (inactive)
GI50 (SNB-75): > 100 µM (inactive)
GI50 (U-251): > 100 µM (inactive)
GI50 (HOP-62): > 100 µM (inactive)
GI50 (COLO 205): > 100 µM (inactive)
GI50 (OVCAR-8): > 100 µM (inactive)
GI50 (K562): > 100 µM (inactive)
GI50 (NCI-H522): > 100 µM (inactive)
GI50 (UACC-257): > 100 µM (inactive)
GI50 (LXFL 529): > 100 µM (inactive)
GI50 (UACC-62): > 100 µM (inactive)
GI50 (OVCAR-4): > 100 µM (inactive)
GI50 (NCI-H460): > 100 µM (inactive)
GI50 (SNB-78): > 100 µM (inactive)
GI50 (SK-MEL-5): > 100 µM (inactive)
GI50 (KM-20L2): > 100 µM (inactive)
GI50 (DMS-114): > 100 µM (inactive)
GI50 (MOLT-4): > 100 µM (inactive)

C[C@]12CCc3nn(-c4ccccc4)nc3C1CC[C@@H]1C2CC[C@]2(C)C(=O)CCC12 (some centres not stated)
GI50 (SF-539): > 100 µM (inactive)
GI50 (SK-MEL-2): > 100 µM (inactive)
GI50 (SW-620): > 100 µM (inactive)
GI50 (SK-MEL-28): > 100 µM (inactive)
GI50 (M19-MEL): > 100 µM (inactive)
GI50 (ACHN): > 100 µM (inactive)
GI50 (Malme-3M): > 100 µM (inactive)
GI50 (A549): > 100 µM (inactive)
GI50 (RXF 393): > 100 µM (inactive)
GI50 (IGROV-1): > 100 µM (inactive)
GI50 (HCT-15): > 100 µM
GI50 (DMS-273): > 100 µM (inactive)
GI50 (DLD-1): 93.3 µM (inactive)
GI50 (SK-OV-3): > 100 µM (inactive)
GI50 (OVCAR-5): > 100 µM (inactive)
GI50 (SNB-19): > 100 µM (inactive)
GI50 (KM12): > 100 µM (inactive)
GI50 (SR): > 100 µM (inactive)
GI50 (CAKI-1): > 100 µM (inactive)
GI50 (HCC 2998): > 100 µM (inactive)
GI50 (HCT-116): > 100 µM (inactive)
GI50 (UO-31): > 100 µM (inactive)
GI50 (TK-10): > 100 µM (inactive)
GI50 (NCI-H226): > 100 µM (inactive)
GI50 (HL-60): > 100 µM (inactive)
GI50 (HOP-18): > 100 µM (inactive)
GI50 (RPMI-8226): > 100 µM (inactive)
GI50 (SN12C): > 100 µM (inactive)
GI50 (SF-268): > 100 µM (inactive)
GI50 (CCRF-CEM): > 100 µM (inactive)
GI50 (786-0): > 100 µM (inactive)
GI50 (M14): > 100 µM (inactive)
GI50 (SNB-75): > 100 µM (inactive)
GI50 (U-251): > 100 µM (inactive)
GI50 (HOP-92): > 100 µM (inactive)
GI50 (HOP-62): > 100 µM (inactive)
GI50 (HT-29): > 100 µM (inactive)
GI50 (COLO 205): > 100 µM (inactive)
GI50 (OVCAR-3): > 100 µM (inactive)
GI50 (OVCAR-8): 94.2 µM (inactive)
GI50 (K562): 54.3 µM (inactive)
GI50 (NCI-H522): > 100 µM (inactive)
GI50 (UACC-257): > 100 µM (inactive)
GI50 (SF-295): > 100 µM (inactive)
GI50 (LXFL 529): > 100 µM (inactive)
GI50 (EKVX): > 100 µM (inactive)
GI50 (UACC-62): > 100 µM (inactive)
GI50 (OVCAR-4): > 100 µM (inactive)
GI50 (NCI-H23): > 100 µM (inactive)
GI50 (NCI-H460): > 100 µM (inactive)
GI50 (SNB-78): > 100 µM (inactive)
GI50 (SK-MEL-5): > 100 µM (inactive)
GI50 (KM-20L2): > 100 µM (inactive)
GI50 (LOX IMVI): 82.2 µM (inactive)
GI50 (DMS-114): > 100 µM (inactive)
GI50 (MOLT-4): > 100 µM (inactive)
